Measurements: US7160875B2, “Malonamide derivatives” (priority 2003, dated 2007)

Biological target: γ-secretase (Homo sapiens, UniProt P49768)
Assay: in vitro γ-secretase assay (HEK293 membrane fraction, recombinant APP substrate, Abeta ELISA)
Format: biochemical
Settings: γ-secretase inhibition; HEK293 membrane fraction solubilized in 0.25% CHAPSO, C-terminal 100 amino acids of human APP as substrate, Abeta detected by ELISA
Source text: The activity of test compounds can be evaluated in assays which measure the proteolytic cleavage of suitable substrates by γ-secretase activity. These can be cellular assays where e.g., a substrate of the γ-secretase is fused in its cytoplasmic domain to a transcription factor. Cells are transfected with this fusion gene and a reporter gene, e.g., firefly luciferase, which expression is enhanced by the transcription factor. Cleavage of the fused substrate by γ-secretase will lead to expression of the reporter gene which can be monitored in appropriate assays. The γ-secretase activity can also be determined in cell-free in vitro […] containing the γ-secretase complex is incubated with a suitable APP-derived substrate which is cleaved to the Abeta peptides. The amount of produced peptides can be determined with specific ELISA assays. Cell lines of neuronal origin secrete Abeta peptides which can be measured with the specific ELISA assay. Treatment with compounds which inhibit γ-secretase leads to a reduction of secreted Abeta thus providing a measure of inhibition. The in vitro assay of γ-secretase activity uses a HEK293 membrane fraction as a source of γ-secretase and a recombinant APP substrate. The latter consist of the C-terminal 100 amino acids of human APP fused to a 6× Histidin tail for purification which is expressed in E. coli in a regulatable expression vector, e.g. pEt15. This recombinant protein corresponds to the truncated APP fragment which results after […] of the extracellular domain and which constitutes the γ-secretase substrate. The assay principle is described in Li Y M et al, PNAS 97(11), 6138-6143 (2000). Hek293 cells are mechanically disrupted, and the microsomal fraction is isolated by differential centrifugation. The membranes are solubilized in detergent (0.25% CHAPSO) and incubated with the APP substrate. The Abeta peptides which are produced by γ-secretase cleavage of the substrate are detected by specific ELISA assays as described (Brockhaus M et al, Neuroreport 9(7), 1481-1486 (1998).

IC50 [nM]	Molecule
90	5-Methyl-4-oxo-(3S)-[(2RS)-(2,2,3,3,3-pentafluoro-propylcarbamoyl)-propionylamino]-2,3,4,5-tetrahydro-benzo[b][1,4]diazepine-1-carboxylic acid cyclopropylmethyl estermalonamide [Example 106]
71	CC(C(=O)NCC(F)(F)C(F)(F)F)C(=O)N[C@H]1CN(S(=O)(=O)C(F)(F)F)c2ccccc2N(C)C1=O (mixture of isomers) [Example 95, (2RS)-Methyl-N-((3S)-1-methyl-2-oxo-5-trifluorromethanesulfonyl-2,3,4,5-tetrahydro-1H-benzo[b][1,4]diazepin-3-yl)-N′-(2,2,3,3,3-pentafluoro-propyl)-malonamide]
48	CC(C(=O)NCC(F)(F)C(F)(F)F)C(=O)N[C@H]1CN(C(=O)OCC2CC2)c2ccccc2N(CC(F)(F)F)C1=O (mixture of isomers) [Example 109, 4-Oxo-(3S)-[(2RS)-(2,2,3,3,3-pentafluoro-propylcarbamoyl)-propionylamino]-5-(2,2,2-trifluoro-ethyl)-2,3,4,5-tetrahydro-benzo[b][1,4]diazepine-1-carboxylic Acid Cyclopropylmethyl Ester]
4	CC(C)(C(=O)NCC(F)(F)C(F)(F)F)C(=O)N[C@@H]1C(=O)Nc2ccccc2-c2ccccc21 [Example 67, 2,2-Dimethyl-N-((S)-6-oxo-6,7-dihydro-5H-dibenzo[b,d]azepin-7-yl)-N′-(2,2,3,3,3-pentafluoro-propyl)-malonamide]
